Results reported in publication PMC11371738, “Development of an ic-CLEIA for precise detection of 3-CQA in herbs and patent medicines: ensuring quality control and therapeutic efficacy” (Frontiers in Nutrition, 2024).
Converted amounts (≈) assume the structure as drawn.

How the values were obtained:
anti-3-CQA mAb [1] = assay: mAb-based indirect competitive chemiluminescence enzyme immunoassay (ic-CLEIA); type: binding, mouse; details: for CR (cross-reactivity) = IC50 3-CQA / IC50 analogue x 100%: ic-CLEIA; for IC50: 3-CQA-OVA coating 2 μg/mL, mAb 1:8000, deionized water pH 7.0
Method: To establish the optimal conditions for the ic-CLEIA, a checkerboard titration was employed. The protocols of the ic-CLEIA were performed as previously ([20]). A gradient concentration of 3-CQA-OVA (0.125, 0.5, 2.0, and 8.0 μg/mL; 100 μL/well) was diluted in PBS and added to a 96-well white microliter plate (Costar Inc., Cambridge, MA, United States), followed by incubation at 4°C overnight. After washing each well three times with PBST (PBS solution containing 0.05% Tween-20, pH 7.4), the plates were blocked with 5% skimmed milk powder (SMP) (Sigma, St Louis, MO, United States) in PBS (200 μL/well) at 37°C for 2 h. Subsequently, different concentrations of mAb (1:2000, 1:4000, 1:8000, 1:16000, 1:32000, 1:64000, and 1:128000; 100 μL/well) were added to different wells, followed by incubation at 4°C for 50 min. For ic-CLEIA standard curve, 3-CQA standard solutions in PBS (0.01, 0.025, 0.05, 0.1, 0.25, 0.5, 1, 2.5, 5, 10, 25, 50, and 100 ng/mL; 50 μL) and the diluted antibody in PBS (50 μL) were added to each well and incubated at 4°C for 50 min. After a washing step, goat anti-mouse IgG-horse radish peroxidase (HRP) (SinoBiological, Beijing, China) dissolved in PBS supplemented with 2% SMP was added at a 1:5000 dilution (100 μL/well), and the plates were incubated at 37°C for 50 min. Afterward, 100 μL of chemiluminescent substrate solution (Heliosense Biotechnology, Xiamen, China) was pipetted into each well, and the emitted photons were immediately read at 595 nm using a Tecan Infinite F200 reader (Mannedorf, Switzerland). To investigate the effects of different factors on the overall reaction system, different pH (6.5, 7.0, 7.4, and 8.0), methanol aqueous solution (5, 10, 30, and 50%; v/v), Tween-20 (0.01, 0.02, 0.04, 0.06, and 0.08%, v/v), sodium chloride solution (0.1 M, 0.2 M, and 0.4 M) were prepared and tested.
All incubation steps were performed in the dark throughout the procedure. The competitive inhibition curves for 3-CQA were plotted using GraphPad Prism 8.0 (GraphPad Inc., San Diego, CA).
To evaluate CR, the structural analogs of 3-CQA including 4-CQA, 5-CQA, 3,5-dicaffeoylquinic acid, 4,5-dicaffeoylquinic acid, 3,4-dicaffeoylquinic acid, and tea polyphenols (DESITE Biotech, Chengdu, China) were used in place of 3-CQA within the ic-CLEIA assay. The respective CR values of these analogs were determined using the following equation: […]

anti-3-CQA mAb [2] = assay: indirect competitive ELISA (ic-ELISA); type: binding, mouse; details: same conditions as ic-CLEIA
Method: The protocols of ic-ELISA are similar to the ic-CLEIA, 3-CQA-OVA antigen, anti-3-CQA mAb, and goat anti-mouse IgG-HRP were successively incubated under optimized conditions. 3-CQA standard solutions in PBS (1, 2, 4, 8, 16, 32, 64, 128, 256, and 512 ng/mL; 50 μL) and the diluted antibody in PBS (50 μL) were added to each well and incubated at 4°C for 50 min. Subsequent to four washes, 3, 3′, 5, 5′-tetramethylbenzidine (TMB, 100 μL/well) solution was added and incubated at 37°C for 10 min. The reaction was then terminated by adding 2 M H2SO4 (50 μL/well), and the absorbance was measured at the wavelength of 450 nm (OD450). The competitive inhibition curve was plotted using Lg[10*C3-CQA (ng/mL)] as the abscissa and B/B0 (B0 is the OD450 value without standard, and B is the OD450 value with standard present) as the ordinate.

CR (cross-reactivity) = IC50 3-CQA / IC50 analogue x 100% (anti-3-CQA mAb [1]) [%]	IC50 (anti-3-CQA mAb [1]; optimized conditions) [µg/mL]	IC20 (lower end of linear range) (anti-3-CQA mAb [1]; optimized conditions) [µg/mL]	IC80 (upper end of linear range) (anti-3-CQA mAb [1]; optimized conditions) [µg/mL]	calibration / linear / detection range (IC20-IC80) (anti-3-CQA mAb [1]; optimized conditions) [µg/mL]	limit of detection (LOD, IC10) (anti-3-CQA mAb [1]; optimized conditions) [µg/mL]	IC50 (anti-3-CQA mAb [2]) [µg/mL]	SMILES	LOD (anti-3-CQA mAb [2]) [ng/mL]	linear / detection range (anti-3-CQA mAb [2]) [ng/mL]
2.10	0.14173	–	–	–	–	–	O=C(/C=C/c1ccc(O)c(O)c1)OC1CC(O)(C(=O)O)CC(O)C1OC(=O)/C=C/c1ccc(O)c(O)c1 (stereo not shown) [3,4-dicaffeoylquinic acid]	–	–
10.71	0.02774	–	–	–	–	–	O=C(/C=C/c1ccc(O)c(O)c1)OC1CC(O)(C(=O)O)CC(OC(=O)/C=C/c2ccc(O)c(O)c2)C1O (stereo not shown) [3,5-dicaffeoylquinic acid]	–	–
100.00	0.00297	0.00064	0.01375	0.00064 to 0.01375	0.00039	0.03606 (≈ 0.102 µM)	O=C(C=Cc1ccc(O)c(O)c1)OC1CC(O)(C(=O)O)CC(O)C1O (stereo not shown) [3-CQA, 3-caffeoylquinic acid]	6.71	10.21 to 127.36
0.31	0.97156	–	–	–	–	–	O=C(/C=C/c1ccc(O)c(O)c1)OC1CC(O)(C(=O)O)CC(O)C1OC(=O)/C=C/c1ccc(O)c(O)c1 (stereo not shown) [4,5-dicaffeoylquinic acid]	–	–
0.62	0.48062	–	–	–	–	–	O=C(/C=C/c1ccc(O)c(O)c1)OC1C(O)CC(O)(C(=O)O)CC1O (stereo not shown) [4-CQA, 4-caffeoylquinic acid]	–	–
1.81	0.16444	–	–	–	–	–	O=C(/C=C/c1ccc(O)c(O)c1)OC1CC(O)(C(=O)O)CC(O)C1O (stereo not shown) [5-CQA, 5-caffeoylquinic acid]	–	–
